From ChEMBL document CHEMBL1201862, “PubChem BioAssay data set” (2004)
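A five-concentration, 48-hour dose response in 96-well plates underlies each endpoint, interpolated linearly between surrounding concentrations. At the GI50, growth is halved.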 Active and inactive are the calls of the source. No stated cut-off is given here; in the data, active = GI50 up to about 1.1 µM and inactive = higher.

Experiments:
Test in all cases: DTP human tumour cell line panel, 48 h
[1] = tested on: DU-145
[2] = tested on: NCI-H460
[3] = tested on: HT-29
[4] = tested on: SK-MEL-28
[5] = tested on: A498
[6] = tested on: NCI-H23
[7] = tested on: MDA-MB-231
[8] = tested on: ACHN
[9] = tested on: LOX IMVI
[10] = tested on: OVCAR-3
[11] = tested on: NCI/ADR-RES
[12] = tested on: PC-3
[13] = tested on: MOLT-4
[14] = tested on: UACC-257
[15] = tested on: OVCAR-8
[16] = tested on: SW-620
[17] = tested on: CCRF-CEM
[18] = tested on: HCT-116
[19] = tested on: TK-10
[20] = tested on: MCF7

Compound	GI50 [1]	GI50 [2]	GI50 [3]	GI50 [4]	GI50 [5]	GI50 [6]	GI50 [7]	GI50 [8]	GI50 [9]	GI50 [10]	GI50 [11]	GI50 [12]	GI50 [13]	GI50 [14]	GI50 [15]	GI50 [16]	GI50 [17]	GI50 [18]	GI50 [19]	GI50 [20]
COC(=O)c1cc2c(cc1Cl)Sc1nnc(Nc3ccccc3)n1S2(=O)=O	1.66 µM (inactive)	10 µM (inactive)	2.4 µM (inactive)	3.15 µM (inactive)	5.55 µM (inactive)	2.34 µM (inactive)	3.98 µM (inactive)	1.8 µM (inactive)	7.98 µM (inactive)	1.75 µM (inactive)	8.47 µM (inactive)	3.08 µM (inactive)	2.47 µM (inactive)	7.66 µM (inactive)	3.58 µM (inactive)	3.39 µM (inactive)	2.3 µM (inactive)	3.61 µM (inactive)	2.69 µM (inactive)	2.86 µM (inactive)
CCOC(=O)c1nc2ccc(C(F)(F)F)cc2nc1Nc1ccc(OC)cc1	> 100 µM (inactive)	41.1 µM (inactive)	> 100 µM (inactive)	> 100 µM (inactive)	44.8 µM (inactive)	49.1 µM (inactive)	17.7 µM (inactive)	55 µM (inactive)	> 100 µM (inactive)	27.7 µM (inactive)	63.2 µM (inactive)	49.7 µM (inactive)	> 100 µM (inactive)	> 100 µM (inactive)	> 100 µM (inactive)	> 100 µM (inactive)	> 100 µM (inactive)	56.4 µM (inactive)	> 100 µM (inactive)	> 100 µM (inactive)
O=c1[nH]nc(Cc2ccccc2)n1N=C1CCCCC1	> 100 µM (inactive)	> 100 µM (inactive)	58.7 µM (inactive)	> 100 µM (inactive)	> 100 µM (inactive)	> 100 µM (inactive)	> 100 µM (inactive)	> 100 µM (inactive)	> 100 µM (inactive)	> 100 µM (inactive)	> 100 µM (inactive)	> 100 µM (inactive)	> 100 µM (inactive)	> 100 µM (inactive)	> 100 µM (inactive)	> 100 µM (inactive)	> 100 µM (inactive)	> 100 µM (inactive)	> 100 µM (inactive)	> 100 µM (inactive)
C=C1c2nc3ccccc3n2C=C(c2ccc(C)cc2)N1c1ccc(C)cc1	> 83.4 µM (inactive)	42.3 µM (inactive)	37.9 µM (inactive)	> 100 µM (inactive)	> 100 µM (inactive)	> 59.6 µM (inactive)	> 83.4 µM (inactive)	> 78 µM (inactive)	34.8 µM (inactive)	64.7 µM (inactive)	17.9 µM (inactive)	28.6 µM (inactive)	31.6 µM (inactive)	67.3 µM (inactive)	18.9 µM (inactive)	36.8 µM (inactive)	33 µM (inactive)	43.7 µM (inactive)	> 100 µM (inactive)	26.2 µM (inactive)
CCC/N=C/c1c(O)c(O)c(C(C)C)c2cc(C)c(-c3c(C)cc4c(C(C)C)c(O)c(O)c(/C=N/CCC)c4c3O)c(O)c12	23.8 µM (inactive)	4.38 µM (inactive)	4.04 µM (inactive)	12.6 µM (inactive)	11.2 µM (inactive)	6.1 µM (inactive)	13.9 µM (inactive)	3.99 µM (inactive)	6.04 µM (inactive)	3.88 µM (inactive)	30.1 µM (inactive)	2.48 µM (inactive)	3.41 µM (inactive)	9.59 µM (inactive)	6.46 µM (inactive)	6.55 µM (inactive)	1.54 µM (inactive)	3.44 µM (inactive)	> 100 µM (inactive)	14.7 µM (inactive)
c1c[nH]c(CN2CCOCC2)n1	> 100 µM (inactive)	> 100 µM (inactive)	> 100 µM (inactive)	> 100 µM (inactive)	> 100 µM (inactive)	> 100 µM (inactive)	> 100 µM (inactive)	> 100 µM (inactive)	> 100 µM (inactive)	> 100 µM (inactive)	> 100 µM (inactive)	> 100 µM (inactive)	> 100 µM (inactive)	> 100 µM (inactive)	> 100 µM (inactive)	> 100 µM (inactive)	> 100 µM (inactive)	> 100 µM (inactive)	> 100 µM (inactive)	> 100 µM (inactive)
CN(C)/C=N/S(=O)(=O)c1nn2c(C=O)c(-c3ccc(Cl)cc3)nc2s1	2.12 µM (inactive)	6.28 µM (inactive)	0.196 µM (active)	1.62 µM (inactive)	16.2 µM (inactive)	2.34 µM (inactive)	2.11 µM (inactive)	1.15 µM (inactive)	1.25 µM (inactive)	1.49 µM (inactive)	2.22 µM (inactive)	2.46 µM (inactive)	0.52 µM (active)	2.7 µM (inactive)	1.31 µM (inactive)	0.444 µM (active)	0.228 µM (active)	0.693 µM (active)	1.5 µM (inactive)	0.897 µM (active)
CN(C)c1nc(N)nc(CCl)n1	99.5 µM (inactive)	32.7 µM (inactive)	41.1 µM (inactive)	50.4 µM (inactive)	27.9 µM (inactive)	24.5 µM (inactive)	27.9 µM (inactive)	15.8 µM (inactive)	7.87 µM (inactive)	17.5 µM (inactive)	22 µM (inactive)	74.8 µM (inactive)	18.8 µM (inactive)	87.7 µM (inactive)	35.5 µM (inactive)	28.3 µM (inactive)	17.4 µM (inactive)	54.8 µM (inactive)	72.8 µM (inactive)	40.2 µM (inactive)
CC(C)=CCC[C@](C)(O[C@@H]1O[C@H](CO)[C@@H](O)[C@H](O)[C@H]1O)[C@H]1CC[C@]2(C)[C@@H]1[C@H](O)C[C@@H]1[C@@]3(C)CC[C@H](O)C(C)(C)[C@@H]3[C@@H](O[C@@H]3O[C@H](CO)[C@@H](O)[C@H](O)[C@H]3O[C@@H]3O[C@@H](C)[C@H](O)[C@@H](O)[C@H]3O)C[C@]12C.CC(C)=CCC[C@](C)(O[C@@H]1O[C@H](CO)[C@@H](O)[C@H](O)[C@H]1O)[C@H]1CC[C@]2(C)[C@@H]1[C@H](O)C[C@@H]1[C@@]3(C)CC[C@H](O)C(C)(C)[C@@H]3[C@@H](O[C@@H]3O[C@H](CO)[C@@H](O)[C@H](O)[C@H]3O[C@@H]3O[C@H](CO)[C@@H](O)[C@H](O)[C@H]3O)C[C@]12C	> 75 µM (inactive)	7.5 µM (inactive)	> 75 µM (inactive)	> 75 µM (inactive)	> 75 µM (inactive)	> 75 µM (inactive)	> 75 µM (inactive)	> 75 µM (inactive)	> 75 µM (inactive)	> 75 µM (inactive)	> 75 µM (inactive)	> 75 µM (inactive)	> 75 µM (inactive)	> 75 µM (inactive)	34.9 µM (inactive)	> 75 µM (inactive)	> 75 µM (inactive)	> 75 µM (inactive)	> 75 µM (inactive)	> 75 µM (inactive)
COc1ccc(/C(Cl)=C(\C=O)c2ccc([N+](=O)[O-])cc2)cc1OC	19.2 µM (inactive)	9.27 µM (inactive)	14.2 µM (inactive)	13.1 µM (inactive)	20.5 µM (inactive)	4.26 µM (inactive)	13.8 µM (inactive)	8.83 µM (inactive)	2.87 µM (inactive)	11.5 µM (inactive)	6.38 µM (inactive)	8.71 µM (inactive)	3.05 µM (inactive)	11.5 µM (inactive)	7.64 µM (inactive)	6.12 µM (inactive)	2.44 µM (inactive)	6.15 µM (inactive)	13.4 µM (inactive)	3.72 µM (inactive)
[O-][n+]1onc2c1/C(=N/O)CCC2	> 100 µM (inactive)	> 100 µM (inactive)	> 100 µM (inactive)	> 100 µM (inactive)	> 100 µM (inactive)	> 100 µM (inactive)	> 100 µM (inactive)	> 100 µM (inactive)	> 100 µM (inactive)	> 100 µM (inactive)	> 100 µM (inactive)	> 100 µM (inactive)	> 100 µM (inactive)	> 100 µM (inactive)	> 100 µM (inactive)	> 100 µM (inactive)	> 100 µM (inactive)	> 100 µM (inactive)	> 100 µM (inactive)	> 100 µM (inactive)
